Test results published in article PMC7873226, “Molecular mechanism and structural basis of small-molecule modulation of the gating of acid-sensing ion channel 1” (Communications Biology, 2021).
Changes are numbered by the printed parent chain.

Experiments:
[1] = target: T1, rat ASIC1a (Rattus norvegicus, UniProt P55926); assay: Kinetics of onset of and recovery (wash) from compound inhibition; assay type: cell-based; conditions: for time constant of current inhibition: holding pH 8.2, pH 6.0 test pulses; for pH 6.8-induced current, % pH7.4 control: holding pH 7.4, one cell; for pH 6.8-induced current, % pH8.2 control: holding pH 8.2, one cell; for max - % pH7.4 or 8.2 Control (Y): maximal wash current / ss - % pH7.4 or 8.2 Control (Y): steady-state wash current: after 100 nM
T1 construct: expressed in transfected cells
T1 sequence (P55926 1-526): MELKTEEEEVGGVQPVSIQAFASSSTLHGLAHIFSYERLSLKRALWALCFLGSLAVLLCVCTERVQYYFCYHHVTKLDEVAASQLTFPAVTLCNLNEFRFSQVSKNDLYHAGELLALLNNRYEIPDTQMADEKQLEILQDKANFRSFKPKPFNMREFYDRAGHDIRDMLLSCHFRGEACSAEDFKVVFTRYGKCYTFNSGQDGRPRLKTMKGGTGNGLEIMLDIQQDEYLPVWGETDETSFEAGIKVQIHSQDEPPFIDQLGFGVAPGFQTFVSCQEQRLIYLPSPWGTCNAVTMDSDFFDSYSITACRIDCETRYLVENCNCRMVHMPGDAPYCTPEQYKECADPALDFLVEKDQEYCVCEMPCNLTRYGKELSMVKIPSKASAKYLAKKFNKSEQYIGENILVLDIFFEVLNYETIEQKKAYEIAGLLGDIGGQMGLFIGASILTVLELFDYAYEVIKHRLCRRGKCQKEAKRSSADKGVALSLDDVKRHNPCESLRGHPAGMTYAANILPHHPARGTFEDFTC
Description: (§1) Chinese Hamster Ovary (CHO) cells stably expressing rat ASIC1a were cultured in Ham’s F12, supplemented with 10% FBS, 1% penicillin–streptomycin and 500 µg/mL G418 and incubated at 37 °C with 5% CO2. Transient transfections of rASIC1a and cASIC1 wild-type or mutant channels in CHO cells were performed with Lipofectamine 3000 (Thermo Fisher Scientific) according to the manufacturer’s recommendations. The green fluorescent protein (GFP) cDNA (at 1/10 the amount of channel cDNA) was co-transfected with channel cDNA to aid the identification of transfected cells under the microscope in patch clamp experiments. All cDNAs were sequence verified.
Cells were freshly dissociated with CellStripper (Corning) and dispersed in a chamber on the stage of an inverted microscope. Upon formation of the whole-cell conformation, the cell was lifted from the bottom of the chamber and placed at the tip of a tubing perfusing an extracellular solution containing (in mM): 149 NaCl, 2 CaCl2, 4 KCl, 1 MgCl2, 5 glucose, 10 HEPES, pH 7.4, 310 mOsm/L. Extracellular solutions at more basic or acidic pHs were made by titrating the above pH 7.4 solution with NaOH or HCl (5 mM MES was added to solutions at pH 6.0 and lower). Pipette electrodes were filled with an intracellular solution containing (in mM): 135 KCl, 4 MgATP, 0.3 Na2GTP, 10 EGTA, and 20 HEPES, pH 7.2, 290 mOsm/L.
(§2) All recordings were performed at room temperature using an Axopatch 200B amplifier and pClamp 11 software (Molecular Devices). Currents were measured by whole-cell patch clamp, digitized at 10 kHz and lowpass filtered at 2 kHz. Series resistance was 75% compensated. Responses were elicited by rapid perfusion of acidic solutions using the SF-77B Fast-Step Perfusion device (Warner Instruments) for 40 ms once every 30 s (unless indicated otherwise) and recorded till steady state was reached. The holding potential was 0 mV unless indicated otherwise.
Baseline values (i.e., current amplitudes at the conditioning pH) were subtracted to obtain responses evoked by the test pH. Responses were normalized for each cell before averaging (see figure legends for more detail on normalization for each type of experiment). Concentration–response data were fitted to a logistic function of the form: R = (A1–A2)/(1 + (C/C0)^h)+A2, where R is the normalized response, C is either pH or compound concentration, C0 is the pH/concentration at which half-maximal response occurs (pH50 or IC50), h is the Hill coefficient, and A1 and A2 are constants. Kinetic parameters were obtained by fitting the data with either a single or double exponential function. Fitted data are shown as solid, dashed, or dotted curves.

[2] = target: T2, rASIC1a Y340A (Rattus norvegicus, UniProt P55926, Y340A); assay: Inhibition of pH 6.0-induced current of mutant channel Y340A; assay type: cell-based
T2 construct: expressed in transfected cells; host or cells: CHO cells, transient transfection (GFP cDNA co-transfected separately)
T2 sequence (P55926 1-526 Y340A): T1 sequence (P55926 1-526) with Y340A
Description: as §1
Cells were freshly dissociated with CellStripper (Corning) and dispersed in a chamber on the stage of an inverted microscope. […]
as §2, with “Series resistance was 75% compensated.” left out, “The holding potential was 0 mV unless indicated otherwise.” left out

[3] = 100 nM, t = -50 s (wash starts at t = 0 s)
[4] = holding pH 7.4 (source data Fig. 2d)
[5] = holding pH 8.2 (source data Fig. 2d)

COc1ccc(Oc2ccc(-c3nc4cc(C(=N)N)ccc4[nH]3)cc2)cc1OC [JNJ-799760]
time constant of current inhibition ([1]; 100 nM): 1.6 ± 0.1 s | time constant of current inhibition ([1]; 1 µM): 0.2248 ± 0.0189 s | IC50 [2]: 260 ± 89.8 nM

Cc1cc(N2CC(Oc3cc(F)c4c(N)n[nH]c4c3)C2)c(F)cn1 [JNJ-67869386]
overshoot of maximum wash current above pre-block control level ([1]; 100 nM, holding pH 7.4): > 50% | pH 6.8-induced current, % pH7.4 control ([1]; 100 nM, t = 0 s): 4.9% | pH 6.8-induced current, % pH7.4 control ([1]; 100 nM, t = -10 s): 4.7% | pH 6.8-induced current, % pH7.4 control ([1]; 100 nM, t = -20 s): 3.6% | pH 6.8-induced current, % pH7.4 control ([1]; 100 nM, t = -30 s): 3.3% | pH 6.8-induced current, % pH7.4 control ([1]; 100 nM, t = -40 s): 4.5% | pH 6.8-induced current, % pH7.4 control [1, 3]: 6.7% | pH 6.8-induced current, % pH8.2 control ([1]; 100 nM, t = 0 s): 4.5% | pH 6.8-induced current, % pH8.2 control ([1]; 100 nM, t = -10 s): 7.4% | pH 6.8-induced current, % pH8.2 control ([1]; 100 nM, t = -20 s): 4.9% | pH 6.8-induced current, % pH8.2 control ([1]; 100 nM, t = -30 s): 4.9% | pH 6.8-induced current, % pH8.2 control ([1]; 100 nM, t = -40 s): 5.7% | pH 6.8-induced current, % pH8.2 control [1, 3]: 47.2% | time constant of current inhibition ([1]; 100 nM): 3.6 ± 0.2 s | time constant of wash from inhibition ([1]; 100 nM, wash at pH 7.8, pH 6.0-evoked currents): 12.6 ± 0.6 s | time constant of wash from inhibition ([1]; 100 nM, wash at pH 8.2, pH 6.0-evoked currents): 12.7 ± 1.3 s | max - % pH7.4 or 8.2 Control (Y): maximal wash current [1, 4]: 154.4% | ss - % pH7.4 or 8.2 Control (Y): steady-state wash current [1, 4]: 95.3% | max - % pH7.4 or 8.2 Control (Y): maximal wash current [1, 5]: 96.9% | ss - % pH7.4 or 8.2 Control (Y): steady-state wash current [1, 5]: 96.8% | pH 6.8-induced current, % pH7.4 control ([1]; wash after 100 nM, t = 10 s): 36.5% | pH 6.8-induced current, % pH7.4 control ([1]; wash after 100 nM, t = 20 s): 90.8% | pH 6.8-induced current, % pH7.4 control ([1]; wash after 100 nM, t = 30 s): 132.5% | pH 6.8-induced current, % pH7.4 control ([1]; wash after 100 nM, t = 40 s): 161.6% | pH 6.8-induced current, % pH7.4 control ([1]; wash after 100 nM, t = 50 s): 157.3% | pH 6.8-induced current, % pH7.4 control ([1]; wash after 100 nM, t = 60 s): 153.5% | pH 6.8-induced current, % pH7.4 control ([1]; wash after 100 nM, t = 70 s): 157.1% | pH 6.8-induced current, % pH7.4 control ([1]; wash after 100 nM, t = 80 s): 151.7% | pH 6.8-induced current, % pH7.4 control ([1]; wash after 100 nM, t = 90 s): 149.4% | pH 6.8-induced current, % pH7.4 control ([1]; wash after 100 nM, t = 100 s): 151.7% | pH 6.8-induced current, % pH7.4 control ([1]; wash after 100 nM, t = 110 s): 141.4% | pH 6.8-induced current, % pH7.4 control ([1]; wash after 100 nM, t = 120 s): 127.3% | pH 6.8-induced current, % pH7.4 control ([1]; wash after 100 nM, t = 130 s): 116.2% | pH 6.8-induced current, % pH7.4 control ([1]; wash after 100 nM, t = 140 s): 120.1% | pH 6.8-induced current, % pH7.4 control ([1]; wash after 100 nM, t = 150 s): 108.5% | pH 6.8-induced current, % pH7.4 control ([1]; wash after 100 nM, t = 160 s): 117.3% | pH 6.8-induced current, % pH7.4 control ([1]; wash after 100 nM, t = 170 s): 108.8% | pH 6.8-induced current, % pH7.4 control ([1]; wash after 100 nM, t = 180 s): 100.4% | pH 6.8-induced current, % pH7.4 control ([1]; wash after 100 nM, t = 190 s): 95.1% | pH 6.8-induced current, % pH7.4 control ([1]; wash after 100 nM, t = 200 s): 97.0% | pH 6.8-induced current, % pH7.4 control ([1]; wash after 100 nM, t = 210 s): 100.5% | pH 6.8-induced current, % pH7.4 control ([1]; wash after 100 nM, t = 220 s): 101.0% | pH 6.8-induced current, % pH8.2 control ([1]; wash after 100 nM, t = 10 s): 18.2% | pH 6.8-induced current, % pH8.2 control ([1]; wash after 100 nM, t = 20 s): 43.8% | pH 6.8-induced current, % pH8.2 control ([1]; wash after 100 nM, t = 30 s): 63.8% | pH 6.8-induced current, % pH8.2 control ([1]; wash after 100 nM, t = 40 s): 78.5% | pH 6.8-induced current, % pH8.2 control ([1]; wash after 100 nM, t = 50 s): 78.9% | pH 6.8-induced current, % pH8.2 control ([1]; wash after 100 nM, t = 60 s): 93.2% | pH 6.8-induced current, % pH8.2 control ([1]; wash after 100 nM, t = 70 s): 87.4% | pH 6.8-induced current, % pH8.2 control ([1]; wash after 100 nM, t = 80 s): 90.7% | pH 6.8-induced current, % pH8.2 control ([1]; wash after 100 nM, t = 90 s): 90.7% | pH 6.8-induced current, % pH8.2 control ([1]; wash after 100 nM, t = 100 s): 91.5% | pH 6.8-induced current, % pH8.2 control ([1]; wash after 100 nM, t = 110 s): 90.6% | pH 6.8-induced current, % pH8.2 control ([1]; wash after 100 nM, t = 120 s): 89.7% | pH 6.8-induced current, % pH8.2 control ([1]; wash after 100 nM, t = 130 s): 92.5% | pH 6.8-induced current, % pH8.2 control ([1]; wash after 100 nM, t = 140 s): 93.0% | pH 6.8-induced current, % pH8.2 control ([1]; wash after 100 nM, t = 150 s): 92.2% | pH 6.8-induced current, % pH8.2 control ([1]; wash after 100 nM, t = 160 s): 93.0% | IC50 [2]: 572 ± 177 nM
